According to US20260231941A1, “HERBICIDAL COMPOSITIONS” (SYNGENTA CROP PROTECTION AG, priority 2023, published 2026):

What was measured:
Test in all cases: Post-emergence efficacy, glasshouse, percentage damage to plant
Assay type in all cases: in vivo
[1] = test system: Abutilon theophrasti (ABUTH); conditions: 14 days, Table B7
Description: (§1) Seeds of a variety of test species are sown in standard soil in pots (Digitaria sanguinalis (DIGSA), Echinochloa crus-galli (ECHCG), Setaria faberi (SETFA), Stellaria media (STEME), Amaranthus retroflexus (AMARE), Chenopodium album (CHEAL), Abutilon theophrasti (ABUTH), Ipomoea hederacea (IPOHE), Phalaris minor (PHAMI), Eleusine indica (ELEIN), Sorghum bicolor (SORVU), Euphorbia heterophylla (EPHHL), Fallopia convolvulus (POLCO)), and cultivated under controlled conditions in a glasshouse (at 24/16° C., day/night; 14 hours light; 65% humidity), the plants are sprayed with an aqueous spray solution derived from the dissolution of Component (A) in acetone and IF50 (11.12% Emulsogen EL360 TM+44.44% N-methylpyrrolidone+44.44% Dowanol DPM glycol ether) and Component (B) which was then diluted to the required concentration using 0.2% Genapol XO80 (CAS No. 9043-30-5) in water as the diluent. Test compounds or compositions are applied at the rates stated. The test plants are then grown in a glasshouse under controlled conditions in a glasshouse (at […], day/night; 14 hours light; 65% humidity) and watered twice daily. After 14 days, the test is evaluated for the percentage damage caused to the plant (100=total damage to plant; 0=no damage to plant), and the result are shown below in table B1 to B18.

[2] = test system: Amaranthus retroflexus (AMARE); conditions: 14 days
Description: as §1

[3] = test system: Chenopodium album (CHEAL); conditions: 14 days, Table B6
Description: as §1

[4] = test system: Digitaria sanguinalis (DIGSA); conditions: 14 days, Table B1
Description: as §1

[5] = test system: Echinochloa crus-galli (ECHCG); conditions: growth stage 4 true leaves, 14 days
Description: as §1

Eleusine indica (ELEIN) = conditions: 14 days, Table B17
Description: as §1

[6] = test system: Euphorbia heterophylla (EPHHL); conditions: 14 days, Table B11
Description: as §1

[7] = test system: Fallopia convolvulus (POLCO); conditions: 14 days
Description: as §1

[8] = test system: Ipomoea hederacea (IPOHE); conditions: 14 days
Description: as §1

Phalaris minor (PHAMI) = conditions: 14 days, Table B9
Description: as §1

Setaria faberi (SETFA) = conditions: 14 days, Table B3
Description: as §1

Sorghum bicolor (SORVU) = conditions: 14 days, Table B10
Description: as §1

Stellaria media (STEME) = conditions: 14 days
Description: as §1

[9] = Compound (Ia) 0.46875 g/Ha alone
[10] = Compound (Ia) 0.9375 g/Ha alone

## CCOC(=O)C1(C)CC(c2cc(-n3c(=O)cc(C(F)(F)F)n(C)c3=O)c(F)cc2Cl)=NO1 (stereo not drawn) [Compound (Ia)]
[1]; [9]
  Observed Activity: 25.0%
[1]; [10]
  Observed Activity: 67.5%
[1]; Compound (Ia) 1.875 g/Ha alone
  Observed Activity: 88.8%
[2]; Compound (Ia) 0.9375 g/Ha alone, Table B5
  Observed Activity: 51.3%
[2]; Compound (Ia) 0.9375 g/Ha alone, Table B15
  Observed Activity: 51.3%
[2]; Compound (Ia) 1.875 g/Ha alone, Table B5
  Observed Activity: 73.8%
[3]; Compound (Ia) 1.875 g/Ha alone
  Observed Activity: 77.5%
[4]; [10]
  Observed Activity: 23.8%
[5]; Compound (Ia) 3.75 g/Ha alone, Table B2
  Observed Activity: 52.5%
[5]; Compound (Ia) 3.75 g/Ha alone, Table B13
  Observed Activity: 31.3%
[5]; Compound (Ia) 7.5 g/Ha alone, Table B2
  Observed Activity: 68.8%
[5]; Compound (Ia) 7.5 g/Ha alone, Table B13
  Observed Activity: 47.5%
Eleusine indica (ELEIN); [9]
  Observed Activity: 37.5%
Eleusine indica (ELEIN); Compound (Ia) 7.5 g/Ha alone
  Observed Activity: 89.8%
[6]; [10]
  Observed Activity: 33.3%
[6]; Compound (Ia) 1.875 g/Ha alone
  Observed Activity: 45.3%
[7]; Compound (Ia) 0.9375 g/Ha alone, Table B18
  Observed Activity: 82.0%
[7]; Compound (Ia) 1.875 g/Ha alone, Table B12
  Observed Activity: 79.8%
[7]; Compound (Ia) 1.875 g/Ha alone, Table B18
  Observed Activity: 79.8%
[8]; Compound (Ia) 0.46875 g/Ha alone, Table B8
  Observed Activity: 53.8%
[8]; Compound (Ia) 0.46875 g/Ha alone, Table B16
  Observed Activity: 53.8%
[8]; Compound (Ia) 1.875 g/Ha alone, Table B8
  Observed Activity: 83.8%
[8]; Compound (Ia) 1.875 g/Ha alone, Table B16
  Observed Activity: 83.8%
Phalaris minor (PHAMI); [9]
  Observed Activity: 7.5%
Phalaris minor (PHAMI); [10]
  Observed Activity: 11.3%
Phalaris minor (PHAMI); Compound (Ia) 1.875 g/Ha alone
  Observed Activity: 25.8%
Phalaris minor (PHAMI); Compound (Ia) 3.75 g/Ha alone
  Observed Activity: 57.0%
Phalaris minor (PHAMI); Compound (Ia) 7.5 g/Ha alone
  Observed Activity: 72.8%
Setaria faberi (SETFA); Compound (Ia) 3.75 g/Ha alone
  Observed Activity: 73.8%
Sorghum bicolor (SORVU); Compound (Ia) 7.5 g/Ha alone
  Observed Activity: 72.3%
Stellaria media (STEME); Compound (Ia) 0.9375 g/Ha alone, Table B4
  Observed Activity: 27.5%
Stellaria media (STEME); Compound (Ia) 1.875 g/Ha alone, Table B4
  Observed Activity: 43.8%
Stellaria media (STEME); Compound (Ia) 7.5 g/Ha alone, Table B14
  Observed Activity: 67.5%

## CP(=O)(O)CCC(N)C(=O)O (stereo not drawn) [Glufosinate, glufosinate]
[1]; Glufosinate 7.5 g/Ha alone
  Observed Activity: 7.5%
[1]; Glufosinate 15 g/Ha alone
  Observed Activity: 10.0%
[2]; Glufosinate 7.5 g/Ha alone, Table B5
  Observed Activity: 0.0%
[2]; Glufosinate 15 g/Ha alone, Table B5
  Observed Activity: 0.0%
[2]; Glufosinate 30 g/Ha alone, Table B5
  Observed Activity: 2.5%
[3]; Glufosinate 15 g/Ha alone
  Observed Activity: 0.0%
[4]; Glufosinate 7.5 g/Ha alone
  Observed Activity: 5.0%
[5]; Glufosinate 30 g/Ha alone, Table B2
  Observed Activity: 47.5%
[5]; Glufosinate 60 g/Ha alone, Table B2
  Observed Activity: 67.5%
[5]; Glufosinate 120 g/Ha alone, Table B2
  Observed Activity: 91.5%
[6]; Glufosinate 3.75 g/Ha alone
  Observed Activity: 12.5%
[6]; Glufosinate 7.5 g/Ha alone
  Observed Activity: 12.5%
[7]; Glufosinate 7.5 g/Ha alone, Table B12
  Observed Activity: 7.5%
[8]; Glufosinate 7.5 g/Ha alone, Table B8
  Observed Activity: 2.5%
[8]; Glufosinate 30 g/Ha alone, Table B8
  Observed Activity: 7.5%
Phalaris minor (PHAMI); Glufosinate 1.875 g/Ha alone
  Observed Activity: 2.5%
Phalaris minor (PHAMI); Glufosinate 3.75 g/Ha alone
  Observed Activity: 5.0%
Phalaris minor (PHAMI); Glufosinate 7.5 g/Ha alone
  Observed Activity: 12.5%
Phalaris minor (PHAMI); Glufosinate 15 g/Ha alone
  Observed Activity: 7.5%
Phalaris minor (PHAMI); Glufosinate 30 g/Ha alone
  Observed Activity: 12.5%
Setaria faberi (SETFA); Glufosinate 30 g/Ha alone
  Observed Activity: 15.0%
Sorghum bicolor (SORVU); Glufosinate 30 g/Ha alone
  Observed Activity: 24.0%
Stellaria media (STEME); Glufosinate 7.5 g/Ha alone, Table B4
  Observed Activity: 0.0%
Stellaria media (STEME); Glufosinate 30 g/Ha alone, Table B4
  Observed Activity: 2.5%

## CP(=O)(O)CC[C@H](N)C(=O)O [L-Glufosinate, L-glufosinate]
[2]; L-Glufosinate 7.5 g/Ha alone, Table B15
  Observed Activity: 5.0%
[2]; L-Glufosinate 15 g/Ha alone, Table B15
  Observed Activity: 7.5%
[5]; L-Glufosinate 30 g/Ha alone, Table B13
  Observed Activity: 5.0%
[5]; L-Glufosinate 60 g/Ha alone, Table B13
  Observed Activity: 22.5%
[5]; L-Glufosinate 120 g/Ha alone, Table B13
  Observed Activity: 32.5%
Eleusine indica (ELEIN); L-Glufosinate 1.875 g/Ha alone
  Observed Activity: 0.0%
Eleusine indica (ELEIN); L-Glufosinate 30 g/Ha alone
  Observed Activity: 20.0%
[7]; L-Glufosinate 3.75 g/Ha alone, Table B18
  Observed Activity: 10.0%
[7]; L-Glufosinate 7.5 g/Ha alone, Table B18
  Observed Activity: 25.0%
[8]; L-Glufosinate 7.5 g/Ha alone, Table B16
  Observed Activity: 5.0%
[8]; L-Glufosinate 15 g/Ha alone, Table B16
  Observed Activity: 15.0%
Stellaria media (STEME); L-Glufosinate 120 g/Ha alone, Table B14
  Observed Activity: 32.5%
